Key:
[1] = target: PRMT5/MEP50 (Homo sapiens (Human), UniProt O14744); experiment: PRMT5/MEP50 enzyme inhibition assay, Assay 2 (384-well, MALDI mass spectrometry, histone H4 1-21 peptide); format: biochemical; conditions: 1 μM SAM, 0.1 μM histone H4 1-21 peptide, 18-hour incubation at rt
Experimental: Compounds were tested for inhibition of methyltransferase activity in 384-well plate assay format using mass spectrometry technology. In this enzyme inhibition assay, compounds were tested in a 11-dose IC50 mode with 3-serial dilution, in duplicate, starting at 1, 10, or 100 μM. Reactions were carried out at 1 μM SAM and 0.1 μM histone H4 1-21 peptide as substrates for methyl transfer. Following an 18-hour incubation at rt, the reaction was stopped with 0.5% formic acid. Products of the reaction were captured while unreacted substrates were washed away, prior to MALDI mass spectrometry detection and analysis. Percent enzyme activity was calculated based on no inhibitor DMSO control as 100% activity. EC50 values were determined in GraphPad Prism 8 using the [inhibitor] vs. response—Variable slope (four parameters) function.
Compounds of Formula (I) show activity in this assay. A value of ‘A’ in the table below indicates an IC50 of <1 nM, a value of ‘B’ indicates an IC50≥1 nM to ≤100 nM, and a value of ‘C’ indicates an IC50 value of >100 nM.

[2] = test system: HepG2 hepatoma cells; experiment: Cell proliferation assay, HepG2 (CellTiter-Glo, 7 days); format: cell-based; conditions: HepG2, 7 days, CellTiter-Glo 2.0
Experimental: (§1) HepG2 hepatoma cells (ATCC, HB-8065) were maintained in DMEM with high glucose (Lonza, 12-914F) supplemented with 10% fetal bovine serum (FBS; Biowest, S181B-500) and 2 mM L-glutamine (Biowest, X0551-100) at 37° C. and 5% CO2. A549 lung carcinoma cells (ATCC, CCL-185) were maintained in F-12K medium (ThermoFisher 21127030) supplemented with 10% FBS at 37° C. and 5% CO2. Exponentially growing HepG2 or A549 were plated in white, clear-bottom 96-well plates (Corning, 3903) at a cell density of 2000 (HepG2) or 350 (A549) cells per well in 199 μL of HepG2 medium. Next, 1 μL of a 5-fold 9-point dilution series of test compound in DMSO was added to the different wells. Cells were incubated at 37° C. 5% CO2 for 7 days. Cell viability was assessed on day 7 with the CellTiter-Glo 2.0 Cell Viability assay kit (Promega, G9243) to quantify the intracellular amounts of ATP: first, 100 μL of cell culture medium was removed from each well, next 100 μL of CellTiter-Glo® 2.0 Reagent was added and plates were shaken for 2 minutes on an orbital shaker. After 10 minutes stabilization at room temperature, read-out was performed on a ThermoFisher VarioSkan Lux plate reader. Counts were normalized to DMSO control (0% inhibition) and the cytotoxic control (100% inhibition) and EC50 values were determined in GraphPad Prism 8 using the [Agonist] vs. response—Variable slope (four parameters) function.
(§2) As shown by the data of Table 2, compounds of Formula (I) have activity in this assay. A value of ‘A’ in the table below indicates an EC50 of <20 nM, a value of ‘B’ indicates an EC50≥20 nM to <100 nM, a value of ‘C’ indicates an EC50 value of EC50≥100 nM to <1000 nM and a value of ‘D’ indicates an EC50≥1000 nM

[3] = test system: A549 lung carcinoma cells; experiment: Cell proliferation assay, A549 (CellTiter-Glo, 7 days); format: cell-based; conditions: A549, 7 days, CellTiter-Glo 2.0
Experimental: as §1, §2

Sequence of PRMT5/MEP50 (O14744 whole entry): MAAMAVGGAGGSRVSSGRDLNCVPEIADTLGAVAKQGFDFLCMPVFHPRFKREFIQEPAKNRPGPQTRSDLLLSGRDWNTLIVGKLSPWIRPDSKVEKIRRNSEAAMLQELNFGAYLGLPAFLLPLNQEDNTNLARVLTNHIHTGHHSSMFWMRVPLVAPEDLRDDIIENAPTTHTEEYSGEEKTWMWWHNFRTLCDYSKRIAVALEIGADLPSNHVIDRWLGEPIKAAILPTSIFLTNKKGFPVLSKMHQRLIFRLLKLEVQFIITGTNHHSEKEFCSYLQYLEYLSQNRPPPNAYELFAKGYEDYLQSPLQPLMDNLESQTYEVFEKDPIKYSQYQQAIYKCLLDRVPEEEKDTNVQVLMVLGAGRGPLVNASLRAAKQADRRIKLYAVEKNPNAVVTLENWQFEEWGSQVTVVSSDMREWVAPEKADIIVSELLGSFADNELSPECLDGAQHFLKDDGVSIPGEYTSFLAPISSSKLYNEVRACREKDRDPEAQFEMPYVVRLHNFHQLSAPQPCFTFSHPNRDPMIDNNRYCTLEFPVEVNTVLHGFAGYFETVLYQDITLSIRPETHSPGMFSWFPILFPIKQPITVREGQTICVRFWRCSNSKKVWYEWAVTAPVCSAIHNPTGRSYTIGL
Sequence of PRMT5/MEP50 (Q9BQA1 whole entry partner): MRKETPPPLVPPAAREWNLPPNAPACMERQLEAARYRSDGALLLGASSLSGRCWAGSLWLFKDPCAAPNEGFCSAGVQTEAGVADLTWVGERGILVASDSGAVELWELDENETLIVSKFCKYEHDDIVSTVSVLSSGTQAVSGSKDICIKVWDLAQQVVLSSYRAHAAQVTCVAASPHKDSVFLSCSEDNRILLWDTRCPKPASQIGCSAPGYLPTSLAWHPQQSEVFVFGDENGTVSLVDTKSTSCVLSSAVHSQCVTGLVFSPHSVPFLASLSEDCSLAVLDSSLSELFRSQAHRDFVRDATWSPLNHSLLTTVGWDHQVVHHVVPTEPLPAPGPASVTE

IC50 [1] | EC50 ([2]; Homo sapiens, 168 h) | EC50 ([3]; Homo sapiens, A549, 168 h) | Structure (SMILES) | EC50 [2] | EC50 [3]
< 1 nM | – | – | Cn1c(N)nc2cc(CC[C@@]3(C)C[C@@H](n4ccc5c(N)ncnc54)[C@H](O)[C@@H]3O)ccc2c1=O [Compound 29] | < 20 nM | 20 to 100 nM
< 1 nM | < 20 nM | < 20 nM | C[C@]1(CCc2cc(F)c3cc(Cl)c(N)nc3c2)C[C@@H](n2ccc3c(N)ncnc32)[C@H](O)[C@@H]1O [Compound 30, (1S,2R,3S,5R)-3-(2-(2-amino-3-chloro-5-fluoroquinolin-7-yl)ethyl)-5-(4-amino-7H-pyrrolo[2,3-d]pyrimidin-7-yl)-3-methylcyclopentane-1,2-diol] | – | –
< 1 nM | 100 to 1000 nM | ≥ 1000 nM | C[C@]1(CCc2ccc3cc4c(nc3c2)NC(=O)CO4)C[C@@H](n2ccc3c(N)ncnc32)[C@H](O)[C@@H]1O [Compound 31, 7-(2-((1S,2R,3S,4R)-4-(4-amino-7H-pyrrolo[2,3-d]pyrimidin-7-yl)-2,3-dihydroxy-1-methylcyclopentyl)ethyl)-2H-[1,4]oxazino[3,2-b]quinolin-3(4H)-one] | – | –
< 1 nM | < 20 nM | < 20 nM | Nc1nc2cc(CC[C@@]3(F)C[C@@H](n4ccc5c(N)ncnc54)[C@H](O)[C@@H]3O)cc(F)c2cc1Cl [Compound 36, (1S,2S,3R,5R)-3-(2-(2-amino-3-chloro-5-fluoroquinolin-7-yl)ethyl)-5-(4-amino-7H-pyrrolo[2,3-d]pyrimidin-7-yl)-3-fluorocyclopentane-1,2-diol] | – | –
< 1 nM | < 20 nM | < 20 nM | C[C@]1(CCc2cc(F)c3ccc(N)nc3c2)C[C@@H](n2ccc3c(N)ncnc32)[C@H](O)[C@@H]1O [Compound 37, (1S,2R,3S,5R)-3-(2-(2-amino-5-fluoroquinolin-7-yl)ethyl)-5-(4-amino-7H-pyrrolo[2,3-d]pyrimidin-7-yl)-3-methylcyclopentane-1,2-diol] | – | –
< 1 nM | < 20 nM | < 20 nM | C[C@]1(CCc2ccc3ccc(N)nc3c2)C[C@@H](n2ccc3c(N)nccc32)[C@H](O)[C@@H]1O [Compound 38, (1S,2R,3S,5R)-5-(4-amino-1H-pyrrolo[3,2-c]pyridin-1-yl)-3-(2-(2-aminoquinolin-7-yl)ethyl)-3-methylcyclopentane-1,2-diol] | – | –
< 1 nM | 20 to 100 nM | 20 to 100 nM | C[C@]1(CCc2cc(F)c3cc(Cl)c(N)nc3c2)C[C@@H](n2ccc3c(N)nccc32)[C@H](O)[C@@H]1O [Compound 39, (1S,2R,3S,5R)-5-(4-amino-1H-pyrrolo[3,2-c]pyridin-1-yl)-3-(2-(2-amino-3-chloro-5-fluoroquinolin-7-yl)ethyl)-3-methylcyclopentane-1,2-diol] | – | –
< 1 nM | < 20 nM | < 20 nM | Nc1nc2cc(CC[C@@]3(CO)C[C@@H](n4ccc5c(N)ncnc54)[C@H](O)[C@@H]3O)cc(F)c2cc1Cl [Compound 40, (1S,2R,3S,5R)-3-(2-(2-amino-3-chloro-5-fluoroquinolin-7-yl)ethyl)-5-(4-amino-7H-pyrrolo[2,3-d]pyrimidin-7-yl)-3-(hydroxymethyl)cyclopentane-1,2-diol] | – | –
< 1 nM | < 20 nM | < 20 nM | C[C@]1(CCc2cc3nc(N)ccc3c(F)c2F)C[C@@H](n2ccc3c(N)ncnc32)[C@H](O)[C@@H]1O [Compound 41, (1S,2R,3S,5R)-3-(2-(2-amino-5,6-difluoroquinolin-7-yl)ethyl)-5-(4-amino-7H-pyrrolo[2,3-d]pyrimidin-7-yl)-3-methylcyclopentane-1,2-diol] | – | –
< 1 nM | < 20 nM | < 20 nM | C[C@]1(CCc2cc(F)c3ccc(N)nc3c2)C[C@@H](n2ccc3c(N)ncc(F)c32)[C@H](O)[C@@H]1O [Compound 42, (1S,2R,3S,5R)-3-(2-(2-amino-5-fluoroquinolin-7-yl)ethyl)-5-(4-amino-7-fluoro-1H-pyrrolo[3,2-c]pyridin-1-yl)-3-methylcyclopentane-1,2-diol] | – | –
< 1 nM | 20 to 100 nM | < 20 nM | C[C@]1(CCc2cc(F)c3cc(Cl)c(N)nc3c2)C[C@@H](n2cc(F)c3c(N)nccc32)[C@H](O)[C@@H]1O [Compound 43, (1S,2R,3S,5R)-3-(2-(2-amino-3-chloro-5-fluoroquinolin-7-yl)ethyl)-5-(4-amino-3-fluoro-1H-pyrrolo[3,2-c]pyridin-1-yl)-3-methylcyclopentane-1,2-diol] | – | –
< 1 nM | 100 to 1000 nM | 20 to 100 nM | N#C[C@]1(CCc2cc(F)c3cc(Cl)c(N)nc3c2)C[C@@H](n2ccc3c(N)ncnc32)[C@H](O)[C@@H]1O [Compound 44, (1S,2R,3S,4R)-1-(2-(2-amino-3-chloro-5-fluoroquinolin-7-yl)ethyl)-4-(4-amino-7H-pyrrolo[2,3-d]pyrimidin-7-yl)-2,3-dihydroxycyclopentane-1-carbonitrile] | – | –
< 1 nM | 100 to 1000 nM | 100 to 1000 nM | NC(=O)[C@]1(CCc2cc(F)c3cc(Cl)c(N)nc3c2)C[C@@H](n2ccc3c(N)ncnc32)[C@H](O)[C@@H]1O [Compound 45, (1R,2R,3S,4R)-1-(2-(2-amino-3-chloro-5-fluoroquinolin-7-yl)ethyl)-4-(4-amino-7H-pyrrolo[2,3-d]pyrimidin-7-yl)-2,3-dihydroxycyclopentane-1-carboxamide] | – | –
< 1 nM | 100 to 1000 nM | 100 to 1000 nM | C[C@]1(CCCCc2ccc(Cl)c(N)n2)C[C@@H](n2ccc3c(N)ncnc32)[C@H](O)[C@@H]1O [Compound 46, (1S,2R,3S,5R)-3-(4-(6-amino-5-chloropyridin-2-yl)butyl)-5-(4-amino-7H-pyrrolo[2,3-d]pyrimidin-7-yl)-3-methylcyclopentane-1,2-diol] | – | –
< 1 nM | 100 to 1000 nM | 20 to 100 nM | C[C@]1(CCCCc2cccc(N)n2)C[C@@H](n2ccc3c(N)ncnc32)[C@H](O)[C@@H]1O [Compound 47] | – | –
< 1 nM | < 20 nM | < 20 nM | C[C@]1(CCc2ccc3ccc(N)nc3c2)C[C@@H](c2ccc3c(N)ncnn23)[C@H](O)[C@@H]1O [Compound 48] | – | –
< 1 nM | < 20 nM | < 20 nM | C[C@]1(CCc2ccc3cc(Cl)c(N)nc3c2)C[C@@H](n2ccc3c(N)ncc(F)c32)[C@H](O)[C@@H]1O [Compound 49] | – | –
< 1 nM | < 20 nM | < 20 nM | C=C[C@]1(CCc2cc(F)c3cc(Cl)c(N)nc3c2)C[C@@H](n2ccc3c(N)ncnc32)[C@H](O)[C@@H]1O [Compound 51] | – | –
< 1 nM | < 20 nM | < 20 nM | C#C[C@]1(CCc2cc(F)c3cc(Cl)c(N)nc3c2)C[C@@H](n2ccc3c(N)ncnc32)[C@H](O)[C@@H]1O [Compound 52] | – | –
< 1 nM | < 20 nM | < 20 nM | C[C@]1(CCc2ccc3cc(Br)c(N)nc3c2)C[C@@H](n2ccc3c(N)nc(Cl)nc32)[C@H](O)[C@@H]1O [Compound 54] | – | –
< 1 nM | < 20 nM | < 20 nM | C[C@]1(CCc2ccc3ccc(N)nc3c2)C[C@@H](c2cnn3c(N)ncnc23)[C@H](O)[C@@H]1O [Compound 56] | – | –

Structure (SMILES) | IC50 [1] | EC50 ([2]; Homo sapiens, 168 h) | EC50 ([3]; Homo sapiens, A549, 168 h) | EC50 [2] | EC50 [3]
C[C@]1(CCc2cc(F)c3cc(Cl)c(N)nc3c2)C[C@@H](n2ccc3c(N)nc(Cl)nc32)[C@H](O)[C@@H]1O [Compound 53] | < 1 nM | – | – | < 20 nM | < 20 nM

Source: US11198699B2 (ALIGOS THERAPEUTICS, INC., priority 2019, dated 2021)
